The source of these data is patent publication US20130273179A1, “SYSTEM AND METHOD FOR IMPROVING OUTCOME OF CEREBRAL ISCHEMIA” (ASTUCE, INC., priority 2012, published 2013).

Structures are written as SMILES.

One series concerns cerebral blood flow. Briefly: Cerebral blood flow by cortical laser Doppler during intranasal nitric oxide in intubated rodents. It counts as in vivo. The note with it: intranasal non-inhaled delivery, within 60 minutes. As for the experimental part: (§1) In intubated rodents, the inventors have shown that cerebral blood flow increases by 100% within 60 minutes of intranasal nitric oxide delivery.

The subject of series [1] is cerebral ischemia (carotid artery occlusion model). Briefly: Carotid artery occlusion model, Speckle laser Doppler, intubated rodents. It counts as in vivo. The note with it: both during the carotid occlusion and following ligature release. As for the experimental part:
as §1

For another series, the system named is cerebral perfusion. Kind of series: CT perfusion scanning before and after intranasal nitric oxide in intubated patients with focal cerebral ischemia. The format is in vivo, human.
Series [2] in a line: Tolerability of intranasal nitric oxide in awake humans (normal volunteers). It counts as in vivo, human. From the text:
While nitric oxide may be given intranasally and without inhalation into the lungs to intubated, comatose individuals the tolerability of intranasal nitric oxide in awake humans has not previously been investigated. The inventors have tested the effect of nitric oxide in humans (normal volunteers) during intranasal delivery. […] Therefore it can easily be tolerated by awake, non-intubated patients.

As to `[N]=O` [nitric oxide], the “cerebral blood flow increase” value with cerebral blood flow came to 100%. The “perfusion in the ischemic hemisphere” value in series [1] is “perfusion is improved in the ischemic hemisphere”. Further, in the series with cerebral perfusion (Post Rx), the “Cerebral Blood Flow, Changes in ACA Watershed” value is “Normalization,” and the “Mean Transit Time, Changes in ACA Watershed” value is given as “Normalization”. Moreover, the “Cerebral Blood Flow, Changes in ACA Watershed: increase in perfusion on L” value in the series on cerebral perfusion (Post Rx vs Pre Rx, left (ischemic) hemisphere) is listed as 67% increase in. The “Mean Transit Time, Right Hemisphere (normal)” value in the series on cerebral perfusion (Post Rx, one hour of intranasal non-inhaled nitric oxide (Pre Rx 6)) worked out at 6.1 s. In addition, the “Mean Transit Time, Left Hemisphere (ischemic)” value with cerebral perfusion (Post Rx, one hour of intranasal non-inhaled nitric oxide (Pre Rx 10)) came out at 6.0 s. For the same compound, the “Cerebral Blood Flow, Left Hemisphere (ischemic)” value in the series on cerebral perfusion (Post Rx, one hour of intranasal non-inhaled nitric oxide (Pre Rx 31)) is listed as 52. The “Cerebral Blood Flow, Right Hemisphere (normal)” value in the series with cerebral perfusion (Post Rx, one hour of intranasal non-inhaled nitric oxide (Pre Rx 49)) stood at 45. In addition, the “cerebral perfusion during treatment (CT perfusion scanning)” value with cerebral perfusion (intubated patients with cerebral ischemia) is “augmentation of cerebral perfusion and normalization of regional perfusion abnormalities”. Further, the “tolerability of gas treatment” value in series [2] (humans, high concentration, intra-nasally and without inhalation) is on record as “tolerated at high concentration”. Also, the “sensation during intranasal delivery” value in series [2] (normal volunteers, concentrations up to 100 PPM) is “does not elicit any sensation”.
